Measurements from patent US9234025B2, “Extracellular allosteric inhibitor binding domain from a tyrosine kinase receptor” (SANOFI, priority 2009, dated 2016).

Experiments:
[1] = biological target: T1, hFGFR1IIIcα-Hemagluttinin (Homo sapiens, UniProt P11362); assay: FGFR1 phosphorylation in rat fat-pad endothelial cells; format: cell-based
T1 construct: expressed in transfected cells; host or cells: rat fat-pad endothelial cells (RFPEC)
Method: Rat fat-pad endothelial cells, stably transfected with hFGFR1IIIcα-Hemagluttinin, were grown to 80-90% confluency and serum starved (0.5% FBS) for 24 h. Stimulation was performed during 5 minutes with FGF2 at 2 ng/ml in combination with SSR or DMSO (as control). Cell lysates were centrifuged at 12,000 g for 10 min, and the supernatants were collected. HA-tagged proteins were immunoprecipitated by incubation of cell lysates overnight at 4° C. in the presence of agarose conjugated anti-HA antibodies. Immune complexes were washed three times with 1 ml of lysis buffer; proteins were eluted via incubation with 50 μl of 2×SDS sample buffer and boiling. Proteins were separated on Novex polyacrylamide gels (Invitrogen, Carlsbad, Calif.) and subsequently transferred onto Hybond ECL nitrocellulose membranes (Amersham Pharmacia). Following incubation with 5% non-fat milk powder in PBS, the membranes were incubated overnight at 4° C. with the following antibodies: pFGFR (CST: 3471) and FGFR1 (CST: 3472).

[2] = biological target: T2, FGFR1-ECD (FGFR1^∂123/Fc) (Homo sapiens, UniProt P11362); assay: scintillation proximity binding assay (SPA), 125I-FGF2 to FGFR1-ECD/Fc
T2 construct: FGFR1-ECD, consisting of the three Ig-like domains D1-3, coupled to a Fc-fragment (FGFR1^∂123/Fc)
From the text: The objective of this study was to develop low molecular weight chemical compounds that bind to the FGFR extracellular domain (ECD) and inhibit FGFR signaling. Given that it is challenging to envisage how a small compound could interact with a much larger polypeptide (i.e. FGF) via simple steric hindrance for the orthosteric site, multiple ligand binding assay formats were utilized to determine whether any identified compounds were acting orthosterically of via an allosteric mechanism. We initially developed a high-throughput scintillation proximity binding assay (SPA) to identify compounds that inhibit the binding of ^125I-FGF2 to FGFR1-ECD, consisting of the three Ig-like domains D1-3, coupled to a Fc-fragment (FGFR1^∂123/Fc).

[3] = biological target: T3, ECD of FGFR1 (FGFR1^∂123) (Homo sapiens, UniProt P11362); assay: STD-NMR / 1D-NMR binding assay, FGFR1 ECD
T3 construct: (ECD; amino acids: 39-358) of the human FGFR1 gene (P11362); His-tag followed by TEV protease cleavage site (N); made in house; host or cells: E. coli BL21(DE3)
Method: The extracellular domain (ECD; amino acids: 39-358) of the human FGFR1 gene (P11362) was PCR amplified and cloned into E. coli vector pETTEV (with a N-terminal His-tag followed by a TEV protease cleavage site), using NdeI and BamHI restriction sites. For protein production, the resulting plasmid (pET FGFR1 D1D2D3) was transformed into E. coli BL21(DE3) (Novagene). Cells were grown at 37° C. until the OD600 reached 0.6 and recombinant protein production was induced by adding 1 mM IPTG (isopropyl-b-D-thiogalactopyranoside). After 4 hours induction, cells were harvested and stored at −80° C. until usage. The cell pellet (1 L culture) was thawed and resuspended in 50 ml buffer 1 (20 mM Tris/HCl, pH 7.5, 200 mM NaCl) containing lysozyme (2 mg), and 40 U benzonase (Merck). […] Complex formation was analyzed by size exclusion chromatography and subsequent analysis on SDS-PAGE.
All STD- and 1D-NMR experiments were carried out on a BRUKER three-channel DRX600 and on a BRUKER four-channel DRX800 spectrometer at the standard temperature of 298 K and were referenced to the internal standard 3-Trimethyl-2,2,3,3-tetradeuteropropionate-sodium salt (TSP). […] For protein ligand 1D STD NMR measurements spectra were recorded with 1 mM ligand SSR128129E (100 mM DMSO stock solution) and […] protein with weak 2s RF irradiation on separated protein methyl resonances. […]

T1 sequence (P11362 22-822): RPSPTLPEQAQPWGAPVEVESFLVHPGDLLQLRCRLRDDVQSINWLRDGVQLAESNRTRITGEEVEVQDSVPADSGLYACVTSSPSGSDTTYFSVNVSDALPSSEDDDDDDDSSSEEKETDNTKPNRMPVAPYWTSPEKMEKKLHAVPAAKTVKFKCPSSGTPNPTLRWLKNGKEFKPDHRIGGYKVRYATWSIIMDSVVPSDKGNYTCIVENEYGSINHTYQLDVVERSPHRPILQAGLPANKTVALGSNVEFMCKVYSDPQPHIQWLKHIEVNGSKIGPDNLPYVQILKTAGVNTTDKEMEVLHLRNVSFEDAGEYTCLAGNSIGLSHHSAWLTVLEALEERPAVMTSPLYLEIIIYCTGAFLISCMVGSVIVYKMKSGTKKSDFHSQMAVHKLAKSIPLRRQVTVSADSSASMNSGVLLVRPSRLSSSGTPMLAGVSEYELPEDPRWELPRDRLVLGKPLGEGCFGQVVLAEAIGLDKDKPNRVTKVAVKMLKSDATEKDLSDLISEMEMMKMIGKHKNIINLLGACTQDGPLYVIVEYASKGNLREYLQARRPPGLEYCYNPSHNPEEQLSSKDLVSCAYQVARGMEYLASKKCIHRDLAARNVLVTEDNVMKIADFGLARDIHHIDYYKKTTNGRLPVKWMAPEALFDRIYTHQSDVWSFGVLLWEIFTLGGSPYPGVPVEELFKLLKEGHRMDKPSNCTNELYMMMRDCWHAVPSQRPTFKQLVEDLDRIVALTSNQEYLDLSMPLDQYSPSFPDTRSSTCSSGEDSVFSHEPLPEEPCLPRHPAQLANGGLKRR
T3 sequence (P11362 39-358): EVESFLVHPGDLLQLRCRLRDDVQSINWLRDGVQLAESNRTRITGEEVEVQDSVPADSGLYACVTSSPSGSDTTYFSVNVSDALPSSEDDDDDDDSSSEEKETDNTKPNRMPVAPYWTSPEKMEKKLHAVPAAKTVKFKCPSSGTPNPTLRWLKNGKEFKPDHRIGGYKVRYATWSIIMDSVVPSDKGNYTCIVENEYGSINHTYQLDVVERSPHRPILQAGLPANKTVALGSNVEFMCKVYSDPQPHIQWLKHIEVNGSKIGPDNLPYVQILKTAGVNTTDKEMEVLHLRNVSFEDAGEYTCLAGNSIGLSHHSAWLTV
T2 sequence (P11362 22-376 limits assumed): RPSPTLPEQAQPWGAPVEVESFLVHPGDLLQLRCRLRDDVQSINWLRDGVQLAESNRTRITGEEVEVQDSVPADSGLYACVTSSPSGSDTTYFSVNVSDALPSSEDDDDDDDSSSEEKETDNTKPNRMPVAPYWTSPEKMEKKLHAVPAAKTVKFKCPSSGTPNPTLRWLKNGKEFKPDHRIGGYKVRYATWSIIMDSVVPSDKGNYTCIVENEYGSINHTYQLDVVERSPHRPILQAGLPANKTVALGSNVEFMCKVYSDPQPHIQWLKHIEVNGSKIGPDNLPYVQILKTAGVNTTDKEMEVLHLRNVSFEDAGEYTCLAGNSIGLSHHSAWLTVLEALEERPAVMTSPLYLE

Which “FGF2-induced FGFR1 tyrosine phosphorylation” value ([1]; SSR in the nanomolar concentration range) does the source give for `COc1c(C)c(C(=O)c2ccc(N)c(C(=O)[O-])c2)n2ccccc12.[Na+]` [SSR] here?
Its value is “highly reduced”.

And the “residual FGFR1 tyrosine phosphorylation” value ([1]; even at high doses)?
The value was “does not completely eliminate FGFR1 tyrosine phosphorylation”.

And the “inhibition of ^125I-FGF2 binding to FGFR1-ECD” value [2]?
Its value is “inhibited ^125I-FGF2 binding”.

And the “binding to ECD of FGFR1” value ([3]; STD-NMR, confirmed by 1D-NMR peak broadening)?
Its value is “bound”.

And the “STD-NMR signal of SSR to the FGFR with heparin analogue” value ([3]; presence or absence of sucrose octasulphate (SOS))?
Its value is “comparable signal”.
